The test deals with T1, SGK1 (Homo sapiens, UniProt O00141).
T1 sequence (O00141 1-431): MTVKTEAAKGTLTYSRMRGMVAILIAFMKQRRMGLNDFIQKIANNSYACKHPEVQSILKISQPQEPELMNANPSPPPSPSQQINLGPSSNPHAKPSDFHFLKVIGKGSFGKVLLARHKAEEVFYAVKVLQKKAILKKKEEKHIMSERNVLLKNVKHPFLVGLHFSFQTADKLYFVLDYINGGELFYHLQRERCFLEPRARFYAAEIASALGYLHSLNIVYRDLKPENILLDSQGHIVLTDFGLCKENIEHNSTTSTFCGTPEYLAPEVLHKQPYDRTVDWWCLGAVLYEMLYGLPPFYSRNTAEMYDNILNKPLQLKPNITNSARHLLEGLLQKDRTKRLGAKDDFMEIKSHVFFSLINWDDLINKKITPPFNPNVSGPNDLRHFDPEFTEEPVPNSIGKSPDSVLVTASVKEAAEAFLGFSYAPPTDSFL
Description: SGK1 inhibition Assay B (Echo mass spectrometry of phosphorylated peptide product). Format: biochemical. Conditions: 60 min at room temperature.

Broadly, the IC50 is the midpoint of a concentration-inhibition curve. The low end stands for greater potency in that assay, the high end for weaker potency in that assay.

Structures can show the parent of a compound that is named as a salt.

Regarding `CN1CCN(c2nccc(C(=O)N[C@@H]3CCCN(c4cc(-c5cnc(-n6cnnn6)nc5)n5ncnc(N)c45)C3)n2)CC1` [Example 856, (R)-N-(1-(7-(2-(1H-tetrazol-1-yl)pyrimidin-5-yl)-4-aminopyrrolo[2,1-f][1,2,4]triazin-5-yl)piperidin-3-yl)-2-(4-methylpiperazin-1-yl)pyrimidine-4-carboxamide], the half-maximal inhibitory concentration (IC50) was determined as 16 nM.

As for `CN1CCN(c2nccc(C(=O)N[C@@H]3CCCN(c4cc(-c5cnc(-n6cnnn6)c(F)c5)n5ncnc(N)c45)C3)n2)CC1` [Example 858], 4 nM corresponded to half-maximal inhibition (IC50). In the case of `COC(=O)N1CC=C(c2cc(N3CCC[C@@H](NC(=O)c4ccnc(N5CCN(C)CC5)n4)C3)c3c(N)ncnn23)C1` [Example 859, methyl (R)-3-(4-amino-5-(3-(2-(4-methylpiperazin-1-yl)pyrimidine-4-carboxamido)piperidin-1-yl)pyrrolo[2,1-f][1,2,4]triazin-7-yl)-2,5-dihydro-1H-pyrrole-1-carboxylate] it was 5 nM; in that of `N#Cc1ccc(C(=O)N[C@@H]2CCCN(c3cc(-c4cnc(-n5cnnn5)c(F)c4)n4ncnc(N)c34)C2)s1` [Example 860, (R)-N-(1-(4-amino-7-(5-fluoro-6-(1H-tetrazol-1-yl)pyridin-3-yl)pyrrolo[2,1-f][1,2,4]triazin-5-yl)piperidin-3-yl)-5-cyanothiophene-2-carboxamide], 3 nM.

Compound `CC(=O)N1CC=C(c2cc(N3CCC[C@@H](NC(=O)c4sc(Cl)cc4OCC45CCCN4CCC5)C3)c3c(N)ncnn23)C1` [Example 917, N-[(3R)-1-[7-(1-acetyl-2,5-dihydro-1H-pyrrol-3-yl)-4-aminopyrrolo[2,1-f][1,2,4]triazin-5-yl]piperidin-3-yl]-5-chloro-3-[(hexahydro-1H-pyrrolizin-7a-yl)methoxy]thiophene-2-carboxamide] showed a 50% inhibitory concentration (IC50) of 3 nM. Turning to `Cc1nc(O[C@@H]2CC[C@H]3[C@H](CCN3C)C2)c(C(=O)N[C@@H]2CCCN(c3cc(-c4ccc(C(N)=O)c(F)c4)n4ncnc(N)c34)C2)s1` [Example 918, 4-{[(3aR,5R,7aS)-1-methyl-octahydro-1H-indol-5-yl]oxy}-N-[(3R)-1-[4-amino-7-(4-carbamoyl-3-fluorophenyl)pyrrolo[2,1-f][1,2,4]triazin-5-yl]piperidin-3-yl]-2-methyl-1,3-thiazole-5-carboxamide], the half-maximal inhibitory concentration (IC50) was 2 nM. The value for `Cc1nc(OCCCN(C)C)c(C(=O)N[C@@H]2CCCN(c3cc(-c4cnc(-n5cnnn5)c(F)c4)n4ncnc(N)c34)C2)s1` [Example 919, N-[(3R)-1-{4-amino-7-[5-fluoro-6-(1H-1,2,3,4-tetrazol-1-yl)pyridin-3-yl]pyrrolo[2,1-f][1,2,4]triazin-5-yl}piperidin-3-yl]-4-[3-(dimethylamino)propoxy]-2-methyl-1,3-thiazole-5-carboxamide] was 5 nM. In the case of `CC(=O)N1CC=C(c2cc(N3CCC[C@@H](NC(=O)c4sc(C#N)cc4O[C@@H]4C[C@H]5CC[C@@H](C4)N5C)C3)c3c(N)ncnn23)C1` [Example 920, N—((R)-1-(7-(1-acetyl-2,5-dihydro-1H-pyrrol-3-yl)-4-aminopyrrolo[2,1-f][1,2,4]triazin-5-yl)piperidin-3-yl)-5-cyano-3-(((1R,3s,5S)-8-methyl-8-azabicyclo[3.2.1]octan-3-yl)oxy)thiophene-2-carboxamide] it was 2 nM.

Regarding `CC(=O)N1CC=C(c2cc(N3CCC[C@@H](NC(=O)c4sc(Cl)cc4OCC(C)(C)O)C3)c3c(N)ncnn23)C1` [Example 921, (R)—N-(1-(7-(1-acetyl-2,5-dihydro-1H-pyrrol-3-yl)-4-aminopyrrolo[2,1-f][1,2,4]triazin-5-yl)piperidin-3-yl)-5-chloro-3-(2-hydroxy-2-methylpropoxythiophene-2-carboxamide TFA salt], the IC50 was 7 nM.
